Laboratory results as given in patent publication US20190292155A1, “THERAPEUTIC INHIBITORY COMPOUNDS” (LifeSci Pharmaceuticals, Inc., priority 2016, published 2019).
Like-named read-outs stand apart in the source and are kept apart here.

Assays:
[1] = target: T1, human complement factor D (Homo sapiens, UniProt P00746); assay: In vitro enzyme inhibition of human complement factor D (Z-Lys-SBzl/DTNB, A405); type: biochemical
T1 construct: purchased R&D Systems 1824-SE
Method in brief: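 Buffer 50 mM Tris/HCl pH 7.5, 1 M NaCl, 0.5% final DMSO; compounds pre-incubated with enzyme 5 min at room temperature, then Z-Lys-SBzl with DTNB added (each diluted to 200 μM before addition).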

[2] = system: alternative pathway (AP) hemolytic activity; assay: AP hemolysis inhibition assay; type: cell-based; conditions: Normal Human Serum, chicken or rabbit erythrocytes
Procedure: The ability of the compounds disclosed herein to inhibit alternative pathway (AP) hemolytic activity was determined. […] In 100 μL reaction system, 1300 to […] final concentration of Normal Human Serum (CompTech) was incubated with compound for 15 min at 37° C. Then 2×10^6 cells/well of chicken or rabbit erythrocytes in assay buffer were added and incubated for an additional 60 min at 37° C. Positive control (100% lysis) consists of serum and RBC, and negative control (0% lysis) consists of assay buffer and RBC only. Samples were centrifuged at 2000 g for 5 min, and supernatants collected. […] Percentage lysis in each sample is calculated relative to positive control (100% lysis).

[3] = biochemical assay, substrate Z-Lys-SBzl, read-out: CFD IC50

T1 sequence (P00746 26-253): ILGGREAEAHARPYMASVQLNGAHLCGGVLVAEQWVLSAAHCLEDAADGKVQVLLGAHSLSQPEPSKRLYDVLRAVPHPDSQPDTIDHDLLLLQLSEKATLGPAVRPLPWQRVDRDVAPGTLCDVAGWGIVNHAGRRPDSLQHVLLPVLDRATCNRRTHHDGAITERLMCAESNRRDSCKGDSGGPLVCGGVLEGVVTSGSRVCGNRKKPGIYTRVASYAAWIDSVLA

| IC50 [1, 3] [nM] | SMILES | EC50 [2] [nM] | IC50 [1] [nM] |
| --- | --- | --- | --- |
| < 100 | NC(=O)c1nn(CC(=O)N(CC(=O)NCc2cccc(Cl)c2F)C2CC2)c2cnccc12 [Example 40, 1-(2-((2-((3-chloro-2-fluorobenzyl)amino)-2-oxoethyl)(cyclopropyl)amino)-2-oxoethyl)-1H-pyrazolo[3,4-c]pyridine-3-carboxamide] | 100 to 1000 | – |
| 1000 to 10000 | NC(=O)c1nn(CC(=O)N(CC(=O)NCc2ccc(F)c(Cl)c2)C2CC2)c2ccccc12 [Example 108, 1-(2-((2-((3-chloro-4-fluorobenzyl)amino)-2-oxoethyl)(cyclopropyl)amino)-2-oxoethyl)-1H-indazole-3-carboxamide] | – | – |
| 1000 to 10000 | Cc1ccc(CNC(=O)CN(C(=O)Cn2nc(C(N)=O)c3ccccc32)C2CC2)cc1Cl [Example 113, 1-(2-((2-((3-chloro-4-methylbenzyl)amino)-2-oxoethyl)(cyclopropyl)amino)-2-oxoethyl)-1H-indazole-3-carboxamide] | – | – |
| < 100 | NC(=O)c1nn(CC(=O)N(CC(=O)NCc2cccc(Cl)c2F)C2CC2)c2c(Cl)cccc12 [Example 81, 7-chloro-1-(2-((2-((3-chloro-2-fluorobenzyl)amino)-2-oxoethyl)(cyclopropyl)amino)-2-oxoethyl)-1H-indazole-3-carboxamide] | – | – |
| 100 to 1000 | N#Cc1ccc(Cl)c(F)c1CNC(=O)CN(C(=O)Cn1nc(C(N)=O)c2ccccc21)C1CC1 [Example 87, 1-(2-((2-((3-chloro-6-cyano-2-fluorobenzyl)amino)-2-oxoethyl)(cyclopropyl)amino)-2-oxoethyl)-1H-indazole-3-carboxamide] | – | – |
| 1000 to 10000 | NC(=O)c1nn(CC(=O)N(CC(=O)NCc2cccc(N)c2F)C2CC2)c2ccccc12 [Example 118, 1-(2-((2-((3-amino-2-fluorobenzyl)amino)-2-oxoethyl)(cyclopropyl)amino)-2-oxoethyl)-1H-indazole-3-carboxamide] | – | – |
| 100 to 1000 | Cc1cccc(CNC(=O)CN(C(=O)Cn2nc(C(N)=O)c3ccccc32)C2CC2)c1F [Example 128, 1-(2-(cyclopropyl(2-((2-fluoro-3-methylbenzyl)amino)-2-oxoethyl)amino)-2-oxoethyl)-1H-indazole-3-carboxamide] | – | – |
| 1000 to 10000 | COc1c(Cl)cccc1CNC(=O)CN(C(=O)Cn1nc(C(N)=O)c2ccccc21)C1CC1 [Example 116, 1-(2-((2-((3-chloro-2-methoxybenzyl)amino)-2-oxoethyl)(cyclopropyl)amino)-2-oxoethyl)-1H-indazole-3-carboxamide] | – | – |

Further lines, the molecule ahead of its results:

| SMILES | IC50 [1, 3] [nM] | EC50 [2] [nM] | IC50 [1] [nM] |
| --- | --- | --- | --- |
| NC(=O)n1nc(CC(=O)N(CC(=O)Nc2cccc(Cl)n2)C2CCC2)c2ccccc21 [Example 20, 3-(2-((2-((6-chloropyridin-2-yl)amino)-2-oxoethyl)(cyclobutyl)amino)-2-oxoethyl)-1H-indazole-1-carboxamide] | 100 to 1000 | 100 to 1000 | – |
| CC(=O)c1nn(CC(=O)N(CC(=O)NCc2cccc(Cl)c2F)C2CC2)c2ccccc12 [Example 47, 2-(3-acetyl-1H-indazol-1-yl)-N-(2-((3-chloro-2-fluorobenzyl)amino)-2-oxoethyl)-N-cyclopropylacetamide] | < 100 | 100 to 1000 | – |
| NC(=O)c1nn(CC(=O)N(CC(=O)Nc2cccc(Cl)n2)C2CC2)c2ccccc12 [Example 16, 1-(2-((2-((6-chloropyridin-2-yl)amino)-2-oxoethyl)(cyclopropyl)amino)-2-oxoethyl)-1H-indazole-3-carboxamide] | – | 100 to 1000 | 100 to 1000 |
| NC(=O)c1nc(NC(=O)N(CC(=O)NCc2cccc(Cl)c2F)C2CC2)c2ccccn12 [Example 53, 1-(3-(2-((3-chloro-2-fluorobenzyl)amino)-2-oxoethyl)-3-cyclopropylureido)imidazo[1,5-a]pyridine-3-carboxamide] | 100 to 1000 | 100 to 1000 | – |
| NC(=O)n1nc(CC(=O)N(CC(=O)NCc2cccc(Cl)c2F)C2CC2)c2ccccc21 [Example 8, 3-(2-((2-((3-chloro-2-fluorobenzyl)amino)-2-oxoethyl)(cyclopropyl)amino)-2-oxoethyl)-1H-indazole-1-carboxamide] | < 100 | 100 to 1000 | – |
| CC(C)N(CC(=O)NCc1cccc(Cl)c1F)C(=O)Nc1cn(C(N)=O)c2ccccc12 [Example 50, 3-(3-(2-((3-chloro-2-fluorobenzyl)amino)-2-oxoethyl)-3-isopropylureido)-1H-indole-1-carboxamide] | 100 to 1000 | 1000 to 10000 | – |
| CC(C)N(CC(=O)Nc1cccc(Cl)n1)C(=O)Cn1nc(C(N)=O)c2ccccc21 [Example 12, 1-(2-((2-((6-chloropyridin-2-yl)amino)-2-oxoethyl)(isopropyl)amino)-2-oxoethyl)-1H-indazole-3-carboxamide] | – | 100 to 1000 | 100 to 1000 |
| N#Cc1ccc2c(c1)c(C(N)=O)nn2CC(=O)N(CC(=O)NCc1cccc(Cl)c1F)C1CC1 [Example 92, 1-(2-((2-((3-chloro-2-fluorobenzyl)amino)-2-oxoethyl)(cyclopropyl)amino)-2-oxoethyl)-5-cyano-1H-indazole-3-carboxamide] | 100 to 1000 | – | – |
| CC(C)C(C)N(CC(=O)NCc1cccc(Cl)c1F)C(=O)Cn1nc(C(N)=O)c2ccccc21 (stereo not drawn) [Example 54, 1-(2-((2-((3-chloro-2-fluorobenzyl)amino)-2-oxoethyl)(3-methylbutan-2-yl)amino)-2-oxoethyl)-1H-indazole-3-carboxamide] | – | – | 100 to 1000 |
| NC(=O)c1nn(CC(=O)N(CCO)CC(=O)Nc2cccc(Cl)n2)c2ccccc12 [Example 13, 1-(2-((2-((6-chloropyridin-2-yl)amino)-2-oxoethyl)(2-hydroxyethyl)amino)-2-oxoethyl)-1H-indazole-3-carboxamide] | 1000 to 10000 | – | – |
| NC(=O)c1nn(CC(=O)N(CC(=O)NCc2c(F)ccc(Cl)c2F)C2CC2)c2ccccc12 [Example 82, 1-(2-((2-((3-chloro-2,6-difluorobenzyl)amino)-2-oxoethyl)(cyclopropyl)amino)-2-oxoethyl)-1H-indazole-3-carboxamide] | – | – | 100 to 1000 |
